Assay results reported in ChEMBL document CHEMBL3774317, “Design and synthesis of novel tamoxifen analogues that avoid CYP2D6 metabolism” (Eur J Med Chem, 2016).

Columns and labels:
MCF7 = assay: Cytotoxicity against human MCF7 cells assessed as cell growth at 10^-7 M after 48 hrs by SRB assay; type: functional; details: MCF7, 48 h, read-out: Activity
[1] = Cytotoxicity against human HOP92 cells assessed as cell growth at 10^-6 M after 48 hrs by SRB assay; type: functional; details: HOP-92, 48 h, read-out: Activity
NCI-H226 = assay: Cytotoxicity against human NCI-H226 cells assessed as cell growth at 10^-6 M after 48 hrs by SRB assay; type: functional; details: NCI-H226, 48 h, read-out: Activity
NCI-H522 [2] = assay: Cytotoxicity against human NCI-H522 cells assessed as cell growth at 10^-6 M after 48 hrs by SRB assay; type: functional; details: NCI-H522, 48 h, read-out: Activity
[3] = Cytotoxicity against human HCT15 cells assessed as cell growth at 10^-6 M after 48 hrs by SRB assay; type: functional; details: HCT-15, 48 h, read-out: Activity
[4] = Cytotoxicity against human SNB19 cells assessed as growth inhibition after 48 hrs by SRB assay; type: functional; details: SNB-19, 48 h; for CC50: read-out: LC50 (the source's name)
[5] = Cytotoxicity against human SKOV3 cells assessed as growth inhibition after 48 hrs by SRB assay; type: functional; details: SK-OV-3, 48 h; for CC50: read-out: LC50 (the source's name)
ACHN = assay: Cytotoxicity against human ACHN cells assessed as cell growth at 10^-6 M after 48 hrs by SRB assay; type: functional; details: read-out: Activity
[6] = Cytotoxicity against human RXF393 cells assessed as cell growth at 10^-6 M after 48 hrs by SRB assay; type: functional; details: RXF 393, 48 h, read-out: Activity
[7] = Cytotoxicity against human UO31 cells assessed as cell growth at 10^-6 M after 48 hrs by SRB assay; type: functional; details: UO-31, 48 h, read-out: Activity
NCI-H322M = assay: Cytotoxicity against human NCI-H322M cells assessed as cell growth at 10^-5 M after 48 hrs by SRB assay; type: functional; details: read-out: Activity
NCI-H522 [8] = assay: Cytotoxicity against human NCI-H522 cells assessed as cell growth at 10^-5 M after 48 hrs by SRB assay; type: functional; details: NCI-H522, 48 h, read-out: Activity
[9] = Cytotoxicity against human COLO205 cells assessed as cell growth at 10^-5 M after 48 hrs by SRB assay; type: functional; details: COLO 205, 48 h, read-out: Activity
HT-29 [10] = assay: Cytotoxicity against human HT-29 cells assessed as cell growth at 10^-8 M after 48 hrs by SRB assay; type: functional; details: HT-29, 48 h, read-out: Activity
[11] = Cytotoxicity against human UACC257 cells assessed as cell growth at 10^-5 M after 48 hrs by SRB assay; type: functional; details: UACC-257, 48 h, read-out: Activity
T47D = assay: Cytotoxicity against human T47D cells assessed as cell growth at 10^-5 M after 48 hrs by SRB assay; type: functional; details: read-out: Activity
[12] = Cytotoxicity against human SF539 cells assessed as cell growth at 10^-4 M after 48 hrs by SRB assay; type: functional; details: SF-539, 48 h, read-out: Activity
SK-MEL-5 [13] = assay: Cytotoxicity against human SK-MEL-5 cells assessed as cell growth at 10^-4 M after 48 hrs by SRB assay; type: functional; details: SK-MEL-5, 48 h, read-out: Activity
[14] = Cytotoxicity against human OVCAR4 cells assessed as cell growth at 10^-4 M after 48 hrs by SRB assay; type: functional; details: OVCAR-4, 48 h, read-out: Activity
EKVX = assay: Cytotoxicity against human EKVX cells assessed as cell growth at 50 nM after 48 hrs by SRB assay; type: functional; details: read-out: Activity
HT-29 [15] = assay: Cytotoxicity against human HT-29 cells assessed as cell growth at 50 nM after 48 hrs by SRB assay; type: functional; details: HT-29, 48 h, read-out: Activity
[16] = Cytotoxicity against human UACC62 cells assessed as cell growth at 50 nM after 48 hrs by SRB assay; type: functional; details: UACC-62, 48 h, read-out: Activity
[17] = Cytotoxicity against human NCI-ADR-RES cells assessed as cell growth at 50 nM after 48 hrs by SRB assay; type: functional; details: read-out: Activity
[18] = Cytotoxicity against human UO31 cells assessed as cell growth at 50 nM after 48 hrs by SRB assay; type: functional; details: UO-31, 48 h, read-out: Activity
SK-MEL-28 = assay: Cytotoxicity against human SK-MEL-28 cells assessed as cell growth at 50 uM after 48 hrs by SRB assay; type: functional; details: SK-MEL-28, 48 h, read-out: Activity
SK-MEL-5 [19] = assay: Cytotoxicity against human SK-MEL-5 cells assessed as cell growth at 50 uM after 48 hrs by SRB assay; type: functional; details: SK-MEL-5, 48 h, read-out: Activity
[20] = Metabolic stability in human liver microsomes assessed as remaining parent compound level at 10 uM measured immediately after compound addition in absence of NAPDH by LC/MS analysis; type: ADME; details: read-out: Drug metabolism
NCI-H23 = assay: Cytotoxicity against human NCI-H23 cells assessed as cell growth at 0.5 uM after 48 hrs by SRB assay; type: functional; details: NCI-H23, 48 h, read-out: Activity
[21] = Cytotoxicity against human OVCAR5 cells assessed as cell growth at 0.5 uM after 48 hrs by SRB assay; type: functional; details: OVCAR-5, 48 h, read-out: Activity
[22] = Cytotoxicity against human RPMI8226 cells assessed as cell growth at 5 uM after 48 hrs by SRB assay; type: functional; details: RPMI-8226, 48 h, read-out: Activity
[23] = Cytotoxicity against human HOP62 cells assessed as cell growth at 5 uM after 48 hrs by SRB assay; type: functional; details: HOP-62, 48 h, read-out: Activity
[24] = Cytotoxicity against human SF268 cells assessed as cell growth at 5 nM after 48 hrs by SRB assay; type: functional; details: SF-268, 48 h, read-out: Activity
[25] = Cytotoxicity against human OVCAR5 cells assessed as cell growth at 5 nM after 48 hrs by SRB assay; type: functional; details: OVCAR-5, 48 h, read-out: Activity
MDA-MB-231 = assay: Cytotoxicity against human MDA-MB-231 cells assessed as cell growth at 5 nM after 48 hrs by SRB assay; type: functional; details: MDA-MB-231, 48 h, read-out: Activity
[26] = Cytotoxicity against human SW620 cells assessed as cell growth at 5 uM after 48 hrs by SRB assay; type: functional; details: SW-620, 48 h, read-out: Activity
Malme-3M = assay: Cytotoxicity against human MALME-3M cells assessed as cell growth at 5 uM after 48 hrs by SRB assay; type: functional; details: read-out: Activity
M14 = assay: Cytotoxicity against human M14 cells assessed as cell growth at 5 uM after 48 hrs by SRB assay; type: functional; details: M14, 48 h, read-out: Activity
[27] = Cytotoxicity against human OVCAR4 cells assessed as cell growth at 5 uM after 48 hrs by SRB assay; type: functional; details: OVCAR-4, 48 h, read-out: Activity
[28] = Cytotoxicity against human HOP62 cells assessed as cell growth at 50 uM after 48 hrs by SRB assay; type: functional; details: HOP-62, 48 h, read-out: Activity
HT-29 [29] = assay: Cytotoxicity against human HT-29 cells assessed as cell growth at 50 uM after 48 hrs by SRB assay; type: functional; details: HT-29, 48 h, read-out: Activity

C/C(=C(/c1ccc(O)cc1)c1ccc(OCCN2CCCC2)cc1)c1ccccc1
growth at 0.1 µM (MCF7): 44%
growth at 1 µM [1]: 84%
growth at 1 µM (NCI-H226): 91%
growth at 1 µM (NCI-H522 [2]): 92%
growth at 1 µM [3]: 81%
GI50 [4]: 2.95 µM
TGI [4]: 8.1 µM
CC50 [4]: 42.2 µM
GI50 [5]: 3.25 µM
TGI [5]: 13 µM
CC50 [5]: 36.9 µM
growth at 1 µM (ACHN): 93%
growth at 1 µM [6]: 87%
growth at 1 µM [7]: 78%
growth at 10 µM (NCI-H322M): 34%
growth at 10 µM (NCI-H522 [8]): -38%
growth at 10 µM [9]: -79%
growth at 0.01 µM (HT-29 [10]): 101%
growth at 10 µM [11]: -71%
growth at 10 µM (T47D): -5%
growth at 100 µM [12]: -86%
growth at 100 µM (SK-MEL-5 [13]): -100%
growth at 100 µM [14]: -96%

CCCCCCCCCC(=O)Oc1ccc(/C(=C(/C)c2ccccc2)c2ccc(OCCN3CCCC3)cc2)cc1
growth at 0.05 µM (EKVX): 90%
growth at 0.05 µM (HT-29 [15]): 98%
growth at 0.05 µM [16]: 99%
growth at 0.05 µM [17]: 96%
growth at 0.05 µM [18]: 89%
growth at 50 µM (SK-MEL-28): -95%
growth at 50 µM (SK-MEL-5 [19]): -100%
remaining at 0 h, 10 µM [20]: 82%
GI50 [4]: 9.04 µM
TGI [4]: 17.7 µM
CC50 [4]: 34.7 µM
GI50 [5]: 7.36 µM
TGI [5]: 14.8 µM
CC50 [5]: 29.6 µM
growth at 0.5 µM (NCI-H23): 71%
growth at 0.5 µM [21]: 77%
growth at 5 µM [22]: 86%
growth at 5 µM [23]: 91%
growth at 0.005 µM [24]: 100%
growth at 0.005 µM [25]: 99%
growth at 0.005 µM (MDA-MB-231): 99%
growth at 5 µM [26]: 95%
growth at 5 µM (Malme-3M): 81%
growth at 5 µM (M14): 87%
growth at 5 µM [27]: 78%
growth at 50 µM [28]: -78%
growth at 50 µM (HT-29 [29]): -89%
